The source of these data is US12514805B2, “Composition for suppressing skin irritation or inhibiting sebum secretion” (AMOREPACIFIC CORPORATION, priority 2022, dated 2026).

One data set relates to sebaceous gland cells. The experiment in a line: Cytotoxicity in sebaceous gland cells during the comparison of Example 5. As to conditions: 10 μM. The data set is classed as cell-based, human.
The subject of data set [1] is Acetyl-CoA Carboxylase (ACACA). In words: Genetic analysis of cholesterol/fatty acid transcription factors in sebaceous gland cells: ACACA. Conditions: primary sebocytes, cultured 2 days, RT-PCR, FIG. 4. The data set is classed as cell-based, human. The method, then: (§1) Primary sebocyte and human sebocyte complete medium were purchased from Celprogen and used. The sebaceous gland cells were dispensed in a 60 mm cell culture dish at a density of 1.25×10^4 cells/dish, and then cultured in a CO2 incubator under the condition of 37° C. and 5% CO2 at about 80% confluency. Thereafter, 0 μM, 1 μM, and 10 μM of the compound of Chemical Formula 1 (Seletinoid G) were treated with the cells, respectively, and the cells were cultured for 2 days, and then changes in transcription factors related to sebum biosynthesis were confirmed.
(§2) The cells were treated with the material of Example 3, and then, cultured for 2 days, and then, the cell growth medium was removed. After that, 1 ml of Trizol (Invitrogen) was added to the cells, and RNA was isolated from the cells according to the RNA isolation method (Invitrogen). The RNA was quantified using a UV detector (HEWLETT PACKARD) at 260 nm and subject to RT-PCR (reverse transcription-polymerase chain reaction).
(§3) Taqman probes were used for genetic analysis of SREBP1(Hs02561944_s1), SREBP2(Hs01081781_m1), fatty acid synthase(FAS: Hs01005622_m1), Acetyl-CoA Carboxylase(ACACA: Hs01046047_m1) for each sample, and normalization was performed with respect to the complementary gene RPL13A (Hs04194366_g1), and the result is shown in FIG. 4.

Data set [2] has as its system SREBP1, SPERBP2, FAS, and ACACA. The experiment in a line: Comparison of retinoic acid signal transduction pathway modifiers: sebum-related gene expression in sebaceous gland cells. Format: cell-based, human. As to conditions: for effect on sebum-related gene expression (SREBP1, SPERBP2, FAS, ACACA): sebaceous gland cells treated with 1 μM and 10 μM of each material, FIG. 5. The method, then: Primary sebocyte and human sebocyte complete medium were purchased from Celprogen and used.
After that, 1 ml of Trizol (Invitrogen) was added to the cells, and RNA was isolated from the cells according to the RNA isolation method (Invitrogen). The RNA was quantified using a UV detector (HEWLETT PACKARD) at 260 nm and subject to RT-PCR (reverse transcription-polymerase chain reaction).
as §3

Data set [3] concerns retinoic acid receptor (RAR). Conditions: from paper of the Society of Cosmetic Scientists of Korea (2003); cited from earlier work.
Data set [4] deals with fatty acid synthase (FAS). In words: Genetic analysis of cholesterol/fatty acid transcription factors in sebaceous gland cells: FAS. Format: cell-based, human. As to conditions: primary sebocytes, cultured 2 days, RT-PCR, FIG. 4. On the procedure: as §1, §2, §3
The next data set has as its system SREBP2. The experiment in a line: Genetic analysis of cholesterol/fatty acid transcription factors in sebaceous gland cells: SREBP2. The data set is classed as cell-based, human. Conditions: primary sebocytes, cultured 2 days, RT-PCR, FIG. 4. The method, then:
as §1, §2, §3

Another data set relates to SREBP1. In words: Genetic analysis of cholesterol/fatty acid transcription factors in sebaceous gland cells: SREBP1. Format: cell-based, human. Conditions: primary sebocytes, cultured 2 days, RT-PCR, FIG. 4. On the procedure:
as §1, §2, §3

Consider `CC1=C(/C=C/C(C)=C/C=C/C(C)=C/C(=O)O)C(C)(C)CCC1` [retinoic acid, reference compound], for which the cytotoxicity result in the data set on sebaceous gland cells is given as “some cytotoxicity”.

Consider `O=C(/C=C/c1ccc2c(c1)OCO2)OCc1cc(=O)c(O)co1` [Seletinoid G, (5-hydroxy-4-oxopyran-2-yl)methyl (E)-3-(1,3-benzodioxol-5-yl)prop-2-enoate], for which, in the data set on sebaceous gland cells, the cytotoxicity entry was “without causing cytotoxicity”. Moreover, the “expression level of ACACA reduced by” value in data set [1] (1 μM) was around 30%; in data set [1] (10 μM), “about 60%”. For the same compound, the “effect on sebum-related gene expression (SREBP1, SPERBP2, FAS, ACACA)” value (“effect on sebum-related gene expression” for short) in data set [2] is “effect of suppressing sebum-related gene expression”. In addition, the “reduction of the expression level of the transcription factors (SREBP1a, SPERBP2, FAS, ACACA)” value in data set [2] (sebaceous gland cells, 10 μM) is “more than 60%”. The “binding to retinoic acid receptor (specificity)” value in data set [3] is “specifically binds to RARγ”. Moreover, the “expression level of FAS reduced by” value is around 30% in data set [4] (1 μM) and around 45% in data set [4] (10 μM). Moreover, the “expression level of SPERBP2 reduced by” value in the data set on SREBP2 (1 μM) is “about 40%”; in the data set on SREBP2 (10 μM), around 55%. For the same compound, the “expression level of SREBP1 reduced by” value in the data set with SREBP1 (1 μM) is “about 40%”; in the data set with SREBP1 (10 μM) it was “about 60%”.

In the case of `Clc1cccc(C(c2ccc3[nH]cnc3c2)n2ccnc2)c1` (stereo not drawn) [liarozole, reference compound], in data set [2], the “effect on sebum-related gene expression” value is “did not show a significant difference”.

In the case of `CC1=C(/C=C/C(C)=C/C=C/C(C)=C/C(=O)Nc2ccc(O)cc2)C(C)(C)CCC1` [fenretinide, reference compound], the “effect on sebum-related gene expression” value in data set [2] is listed as “effect of suppressing sebum-related gene expression”.
